Key:
M. tuberculosis H37Rv = assay: Minimum inhibitory concentration (resazurin microplate); type: cell-based, Mycobacterium tuberculosis; details: for MIC: Mycobacterium tuberculosis, M. tuberculosis H37Rv, 7 days + 48 h resazurin, highest value of three assays; for Activity against M. tuberculosis H37Rv in words: at the highest concentrations evaluated

SMILES	melting point [°C]	MIC (M. tuberculosis H37Rv) [µM]	Activity against M. tuberculosis H37Rv in words (M. tuberculosis H37Rv)	Fold reduction of activity versus 9n and 9o (M. tuberculosis H37Rv; MIC of unsubstituted benzyloxy compound versus 4-halogenated 9n, 9o)	Fold higher MIC than 9n (M. tuberculosis H37Rv; MIC ratio versus methylated analogue 9n) [fold]
Cc1cc(NCc2ccc(OCc3ccccc3)cc2)c2ccccc2n1 [Compound 9a, N-(4-(benzyloxy)benzyl)-2-methylquinolin-4-amine]	134 to 136	> 7	inactive		
CCc1cc(NCc2ccc(OCc3ccccc3)cc2)c2cc(OC)ccc2n1 [Compound 9aa, N-(4-(benzyloxy)benzyl)-2-ethyl-6-methoxyquinolin-4-amine]	118 to 120	12.5			
Cc1cc(NCc2ccc(OCc3ccc(Cl)cc3)cc2)c2ccccc2n1 [Compound 9b, N-(4-((4-chlorobenzyl)oxy)benzyl)-2-methylquinolin-4-amine]	111 to 113	> 12.9	inactive		
Cc1cc(NCc2ccc(OCc3ccc(F)cc3)cc2)c2ccccc2n1 [Compound 9c, N-(4-((4-fluorobenzyl)oxy)benzyl)-2-methylquinolin-4-amine]	134 to 136	26.8			
Cc1cc(NCc2ccc(OCc3ccc(F)c(F)c3)cc2)c2ccccc2n1 [Compound 9d, N-(4-((3,4-difluorobenzyl)oxy)benzyl)-2-methylquinolin-4-amine]	199 to 201	25.6			
Cc1cc(NCc2ccc(OCc3ccc(C(C)C)cc3)cc2)c2ccccc2n1 [Compound 9e, N-(4-((4-isopropylbenzyl)oxy)benzyl)-2-methylquinolin-4-amine]	95 to 97	27			
COc1cc(COc2ccc(CNc3cc(C)nc4ccccc34)cc2)cc(OC)c1 [Compound 9f, N-(4-((3,5-dimethoxybenzyl)oxy)benzyl)-2-methylquinolin-4-amine]	134 to 136	12.1			
Cc1cc(NCc2ccc(OCc3ccccc3)cc2)c2cc(Cl)ccc2n1 [Compound 9g, N-(4-(benzyloxy)benzyl)-6-chloro-2-methylquinolin-4-amine]	165 to 167	6.4			
Cc1cc(NCc2ccc(OCc3ccc(Cl)cc3)cc2)c2cc(Cl)ccc2n1 [Compound 9h, N-(4-((4-chlorobenzyl)oxy)benzyl) 6-chloro-2-methylquinolin-4-amine]	177 to 179	5.9			
Cc1cc(NCc2ccc(OCc3ccc(F)cc3)cc2)c2cc(Cl)ccc2n1 [Compound 9i, N-(4-((4-fluorobenzyl)oxy)benzyl) 6-chloro-2-methylquinolin-4-amine]	170 to 172	6.1			
Cc1cc(NCc2ccc(OCc3ccc(F)c(F)c3)cc2)c2cc(Cl)ccc2n1 [Compound 9j, N-(4-((3,4-difluorobenzyl)oxy)benzyl)-6-chloro-2-methylquinolin-4-amine]	137 to 139	5.9			
Cc1cc(NCc2ccc(OCc3ccc(C(C)C)cc3)cc2)c2cc(Cl)ccc2n1 [Compound 9k, N-(4-((4-isopropylbenzyl)oxy)benzyl)-6-chloro-2-methylquinolin-4-amine]	126 to 128	5.8			
COc1cc(COc2ccc(CNc3cc(C)nc4ccc(Cl)cc34)cc2)cc(OC)c1 [Compound 9l, N-(4-((3,5-dimethoxybenzyl)oxy)benzyl)-6-chloro-2-methylquinolin-4-amine]	147 to 149	5.7			
Cc1cc(NCc2ccc(OCc3ccccc3)cc2)c2cc(Br)ccc2n1 [Compound 9m, N-(4-(benzyloxy)benzyl)-6-bromo-2-methylquinolin-4-amine]	164 to 166	5.8		more than 2 fold	
Cc1cc(NCc2ccc(OCc3ccc(F)c(F)c3)cc2)c2cc(Br)ccc2n1 [Compound 9p, N-(4-((3,4-difluorobenzyl)oxy)benzyl) 6-bromo-2-methylquinolin-4-amine]	142 to 144	5.3			
Cc1cc(NCc2ccc(OCc3ccc(C(C)C)cc3)cc2)c2cc(Br)ccc2n1 [Compound 9q, N-(4-((4-isopropylbenzyl)oxy)benzyl) 6-bromo-2-methylquinolin-4-amine]	135 to 137	5.3			
COc1cc(COc2ccc(CNc3cc(C)nc4ccc(Br)cc34)cc2)cc(OC)c1 [Compound 9r, N-(4-((3,5-dimethoxybenzyl)oxy)benzyl)-6-bromo-2-methylquinolin-4-amine]	151 to 153	5.1			
CCc1cc(NCc2ccc(OCc3ccccc3)cc2)c2cc(Br)ccc2n1 [Compound 9s, N-(4-(benzyloxy)benzyl)-6-bromo-2-ethylquinolin-4-amine]	136 to 138	5.6			
CCc1cc(NCc2ccc(OCc3ccc(Cl)cc3)cc2)c2cc(Br)ccc2n1 [Compound 9t, N-(4-((4-chlorobenzyl)oxy)benzyl)-6-bromo-2-ethylquinolin-4-amine]	122 to 124	5.2			1.9
COc1ccc2nc(C)cc(NCc3ccc(OCc4ccccc4)cc3)c2c1 [Compound 9u, N-(4-(benzyloxy)benzyl)-6-methoxy-2-methylquinolin-4-amine]	96 to 98	13			
COc1ccc2nc(C)cc(NCc3ccc(OCc4ccc(Cl)cc4)cc3)c2c1 [Compound 9v, N-(4-((4-chlorobenzyl)oxy)benzyl)-6-methoxy-2-methylquinolin-4-amine]	259 to 261	11.9			
COc1ccc2nc(C)cc(NCc3ccc(OCc4ccc(C(C)C)cc4)cc3)c2c1 [Compound 9w, N-(4-((4-isopropylbenzyl)oxy)benzyl)-6-methoxy-2-methylquinolin-4-amine]	133 to 135	23.4			
COc1ccc2nc(C)cc(NCc3ccc(OCc4ccc(F)cc4)cc3)c2c1 [Compound 9x, N-(4-((4-fluorobenzyl)oxy)benzyl)-6-methoxy-2-methylquinolin-4-amine]	141 to 143	12.4			
COc1ccc2nc(C)cc(NCc3ccc(OCc4ccc(F)c(F)c4)cc3)c2c1 [Compound 9y, N-(4-((3,4-difluorobenzyl)oxy)benzyl)-6-methoxy-2-methylquinolin-4-amine]	104 to 106	5.9			
COc1cc(COc2ccc(CNc3cc(C)nc4ccc(OC)cc34)cc2)cc(OC)c1 [Compound 9z, N-(4-((3,5-dimethoxybenzyl)oxy)benzyl)-6-methoxy-2-methylquinolin-4-amine]	164 to 166	11.2			
NNC(=O)c1ccncc1 [INH, isoniazid, reference compound]		2.3			
